Legend:
[1] = test system: pancreatic tissue of C57BL/6J diabetic model mice; experiment: H&E staining of pancreatic tissue sections; assay type: in vivo, C57BL/6J mice; conditions: acinar cell steatosis, islet morphology, inflammation; FIGS. 12A-12D
Experimental: (§1) The AUC for blood glucose changes within two hours post-glucose gavage was shown in FIG. 5, confirming impaired glucose tolerance in the DM group. • 2) Successfully modeled mice were divided into three groups based on no statistical difference in blood glucose within groups and statistical difference in blood glucose between groups: wherein the three groups are rhCygb treatment group (5 mg/kg subcutaneous injection), exendin-4 treatment group (50 μg/kg subcutaneous injection), and placebo group (0.1 mL PBS subcutaneous injection) (grouping without re-caging, mice remained in original cages), respectively.
(§2) The mice of placebo group, rhCygb treatment group, and EX-4 treatment group received daily subcutaneous injections of PBS, rhCygb, or EX-4, respectively for 2 months (frequency adjusted based on survival status of mice). […] Absorbance at 510 nm was measured using a microplate reader. Cholesterol content was calculated according to the formula: […]
The severity of lesions observed in the HE-stained pathological sections of each mouse was graded. This ordinal data was analyzed using the K Independent Samples non-parametric test in SPSS software, and the result indicated a statistically significant difference between groups. As SPSS lacks pairwise comparison for multiple independent samples, all data were ranked and converted into quantitative data, then subjected to one-way ANOVA.

[2] = test system: C57BL/6J diabetic model mice; experiment: Four blood lipid items in serum of treated mice (T-CHO, TG, HDL-C, LDL-C kits); assay type: in vivo, C57BL/6J mice; conditions: subcutaneous rhCygb 5 mg/kg or exendin-4 50 μg/kg, after 28 d of treatment
Experimental: as §1, §2
Serum from each treated C57BL/6J mouse was assayed using a total cholesterol assay kit. […] Absorbance at 510 nm was measured using a microplate reader. […] content was calculated according to the formula: […]
Serum from each treated C57BL/6J mouse was assayed using a triglyceride assay kit. […] Absorbance at 546 nm (A1) was measured using a microplate reader. […] Absorbance at 546 nm (A2) was measured again. […]

Q: What does the source list for Exendin-4 [reference compound]?
A: pancreatic tissue morphology (H&E) [1]: persistent acinar steatosis similar to the PBS group; total cholesterol levels ([2]; FIG. 8): statistically significant reduction in total cholesterol levels compared to the placebo group; LDL-C levels ([2]; FIG. 11): statistically significant reduction in LDL-C levels compared to the placebo group

Reference: patent publication US20260216299A1, “Use of Cytoglobin in Preparation of Drug for Preventing and/or Treating Diabetes” (priority 2022, published 2026)
